In general, residual activity refers to the signal under treatment as a percentage of the control signal.

Assay in all cases: radiometric filter-binding kinase assay, Kinase HotSpot
Holding throughout (conditions): compound 0.5 µM; ATP 10 µM

In assay [1] the test system is PRKCQ (human), Q04759 [P330L].
Assay [2] deals with MKNK1 (human), Q9BUB5 [T385D; 165-205 del].
The test system of assay [3] is FLT4 (human), P35916 [Q890H].
Assay [4] deals with MAP2K6 (human), P52564 [S207E/T211E].
MAP2K6 (human), P52564 [S207E/T211E], sequence (P52564 whole entry S207E/T211E, looked up): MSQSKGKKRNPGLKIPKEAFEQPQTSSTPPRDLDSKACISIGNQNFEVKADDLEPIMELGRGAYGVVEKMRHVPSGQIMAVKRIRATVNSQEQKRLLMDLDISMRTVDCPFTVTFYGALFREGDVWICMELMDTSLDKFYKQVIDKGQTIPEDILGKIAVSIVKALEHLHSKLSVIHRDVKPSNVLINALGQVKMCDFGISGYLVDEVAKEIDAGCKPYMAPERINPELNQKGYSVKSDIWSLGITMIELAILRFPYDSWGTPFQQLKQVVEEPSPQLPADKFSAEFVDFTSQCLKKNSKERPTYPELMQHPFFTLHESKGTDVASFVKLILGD

MKNK1 (human), Q9BUB5 [T385D; 165-205 del], sequence (Q9BUB5 whole entry, looked up, stated change not applied): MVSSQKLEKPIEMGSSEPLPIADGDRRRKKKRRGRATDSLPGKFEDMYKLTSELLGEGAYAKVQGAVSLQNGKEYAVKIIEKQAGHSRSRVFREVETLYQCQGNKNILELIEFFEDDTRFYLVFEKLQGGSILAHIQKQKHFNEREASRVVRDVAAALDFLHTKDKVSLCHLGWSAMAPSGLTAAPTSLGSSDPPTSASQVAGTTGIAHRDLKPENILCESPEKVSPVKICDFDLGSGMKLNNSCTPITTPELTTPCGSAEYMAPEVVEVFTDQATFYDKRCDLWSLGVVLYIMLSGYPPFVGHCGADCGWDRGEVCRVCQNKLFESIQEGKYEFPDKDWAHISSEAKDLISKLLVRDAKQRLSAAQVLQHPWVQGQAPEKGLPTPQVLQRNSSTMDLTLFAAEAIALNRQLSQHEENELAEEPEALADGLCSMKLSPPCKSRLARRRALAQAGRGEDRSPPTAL
PRKCQ (human), Q04759 [P330L], sequence (Q04759 whole entry P330L, looked up): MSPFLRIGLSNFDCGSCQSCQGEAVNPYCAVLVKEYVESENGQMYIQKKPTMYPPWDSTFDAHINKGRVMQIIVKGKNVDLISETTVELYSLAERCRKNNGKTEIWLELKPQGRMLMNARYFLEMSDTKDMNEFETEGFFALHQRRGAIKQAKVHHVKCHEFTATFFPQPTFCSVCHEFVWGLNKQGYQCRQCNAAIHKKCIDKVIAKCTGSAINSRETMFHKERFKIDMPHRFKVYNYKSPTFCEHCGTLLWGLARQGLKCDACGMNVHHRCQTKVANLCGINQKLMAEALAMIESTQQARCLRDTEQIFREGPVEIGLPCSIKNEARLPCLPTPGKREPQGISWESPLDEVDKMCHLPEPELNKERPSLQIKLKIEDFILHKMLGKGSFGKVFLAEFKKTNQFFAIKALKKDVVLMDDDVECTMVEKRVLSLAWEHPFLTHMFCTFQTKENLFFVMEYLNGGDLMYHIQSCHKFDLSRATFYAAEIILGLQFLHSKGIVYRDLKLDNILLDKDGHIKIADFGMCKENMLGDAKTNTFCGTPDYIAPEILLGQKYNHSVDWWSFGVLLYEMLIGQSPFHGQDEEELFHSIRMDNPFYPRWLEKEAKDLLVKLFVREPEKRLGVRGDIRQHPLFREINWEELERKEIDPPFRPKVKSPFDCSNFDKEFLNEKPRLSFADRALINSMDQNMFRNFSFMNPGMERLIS
FLT4 (human), P35916 [Q890H], sequence (P35916 whole entry, looked up, stated change not applied): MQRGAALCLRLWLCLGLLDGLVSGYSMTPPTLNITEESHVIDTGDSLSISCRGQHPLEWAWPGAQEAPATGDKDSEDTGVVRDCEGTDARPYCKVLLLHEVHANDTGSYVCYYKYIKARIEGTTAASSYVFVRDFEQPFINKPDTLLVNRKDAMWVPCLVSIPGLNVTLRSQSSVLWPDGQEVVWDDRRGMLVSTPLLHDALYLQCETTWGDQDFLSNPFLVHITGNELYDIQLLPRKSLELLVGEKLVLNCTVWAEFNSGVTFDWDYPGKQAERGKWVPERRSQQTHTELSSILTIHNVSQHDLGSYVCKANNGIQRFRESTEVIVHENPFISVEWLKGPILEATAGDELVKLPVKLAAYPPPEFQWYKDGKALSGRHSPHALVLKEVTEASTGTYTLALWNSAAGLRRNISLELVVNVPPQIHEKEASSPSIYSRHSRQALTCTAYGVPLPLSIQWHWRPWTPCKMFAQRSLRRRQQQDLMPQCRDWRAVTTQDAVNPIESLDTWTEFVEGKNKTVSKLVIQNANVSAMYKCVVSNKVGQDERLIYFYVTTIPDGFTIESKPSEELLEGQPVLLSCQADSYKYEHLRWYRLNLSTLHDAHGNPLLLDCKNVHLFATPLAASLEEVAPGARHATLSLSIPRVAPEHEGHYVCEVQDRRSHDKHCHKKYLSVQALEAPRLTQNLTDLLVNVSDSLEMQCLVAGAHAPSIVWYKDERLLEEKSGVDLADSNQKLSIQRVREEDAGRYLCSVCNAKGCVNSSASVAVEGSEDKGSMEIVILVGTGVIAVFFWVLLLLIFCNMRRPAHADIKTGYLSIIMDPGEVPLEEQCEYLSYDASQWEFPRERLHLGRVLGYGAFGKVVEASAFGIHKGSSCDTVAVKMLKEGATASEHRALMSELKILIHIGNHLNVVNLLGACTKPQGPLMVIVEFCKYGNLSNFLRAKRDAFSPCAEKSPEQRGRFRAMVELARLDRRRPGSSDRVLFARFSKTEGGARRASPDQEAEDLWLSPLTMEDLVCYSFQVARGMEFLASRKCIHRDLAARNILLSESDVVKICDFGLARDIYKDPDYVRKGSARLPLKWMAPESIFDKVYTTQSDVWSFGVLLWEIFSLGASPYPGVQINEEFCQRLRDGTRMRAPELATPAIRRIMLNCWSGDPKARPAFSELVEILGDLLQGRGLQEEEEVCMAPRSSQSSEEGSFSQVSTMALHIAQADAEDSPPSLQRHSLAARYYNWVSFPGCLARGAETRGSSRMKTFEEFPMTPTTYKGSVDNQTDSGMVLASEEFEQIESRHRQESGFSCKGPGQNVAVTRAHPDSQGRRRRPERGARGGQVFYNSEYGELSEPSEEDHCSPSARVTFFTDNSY

With `CN(C)C[C@H]1CCn2c(c(C3=C(c4cn(C)c5ccccc45)C(=O)NC3=O)c3ccccc32)C1`, the residual activity in assay [1] is 12.7%; in assay [2] it was 100%; in assay [3] it was 114%; in assay [4] it was 109%.

Turning to `O=C(CCCc1ccc(-c2ccccc2F)cc1)Nc1ccc(O)cc1`, the residual activity in assay [1] was determined as 107%; in assay [2], 111%; in assay [3], 99.3%; in assay [4] it was 97.5%.

For `CC(C)c1nn(-c2c(Cl)cccc2Cl)c2nc(Cc3ccc(OCCO)cc3)nc(O)c12`, the residual activity came to 97.3% in assay [1], 110% in assay [2], 103% in assay [3] and 92.7% in assay [4].

`CC#CC(=O)Nc1cc2c(Nc3ccc(F)c(Cl)c3)ncnc2cn1`: the residual activity amounted to 89.3% in assay [1], 89.5% in assay [2], 92.8% in assay [3] and 100% in assay [4].

Turning to `Nc1ccc2ncnc(NCCc3ccc(Oc4ccccc4)cc3)c2c1`, the residual activity in assay [1] amounted to 108%; in assay [2], 106%; in assay [3] it was 101%; in assay [4], 96.6%.

As to `CCOC(=O)c1c(C)[nH]c(/C=C2\C(=O)Nc3ccccc32)c1C`, the residual activity in assay [1] came to 116%; in assay [2], 112%; in assay [3], 79.2%; in assay [4] it was 96.5%.

For `O=C(Nc1cccc(Nc2nccc(Nc3cccc(C(F)(F)F)c3)n2)c1)C1CC1`, the residual activity is 107% in assay [1], 91% in assay [2], 95.9% in assay [3] and 98.3% in assay [4].

Regarding `Oc1cccc(-c2nc(N3CCOCC3)c3oc4ncccc4c3n2)c1`, the residual activity in assay [1] stood at 105%; in assay [2] it was 102%; in assay [3] it was 104%; in assay [4], 86.6%.

As to `Cc1cc2ncc(-c3ccccc3)nc2cc1C`, the residual activity in assay [1] amounted to 97%; in assay [2], 80.3%; in assay [3] it was 115%; in assay [4], 91.1%.

Regarding `O=C(Nc1cccc(Nc2cc(Nc3cccc(C(F)(F)F)c3)ncn2)c1)C1CC1`, the residual activity in assay [1] turned out to be 87.8%; in assay [2], 96.7%; in assay [3], 107%; in assay [4], 108%.

`CC(=O)O/N=C1\C(=C2\C(=O)Nc3cc(Br)ccc32)Nc2ccccc21`: the residual activity in assay [1] is 72%; in assay [2] it was 95.2%; in assay [3], 93.7%; in assay [4], 87.2%.

For `O=c1cc(-c2cccc3c2Sc2ccccc2S3)oc(N2CCOCC2)c1`, the residual activity was 112% in assay [1], 99.5% in assay [2], 104% in assay [3] and 107% in assay [4].

On to `Cc1cc(Nc2nc(-c3ccccc3)nc3ccccc23)n[nH]1`, for which the residual activity in assay [1] came out at 82.3%; in assay [2] it was 93.5%; in assay [3], 44.9%; in assay [4], 93.2%.

In the case of `COc1cc2ncnc(Nc3ccc(O)c(Br)c3)c2cc1OC`, the residual activity in assay [1] amounted to 92.8%; in assay [2] it was 32.7%; in assay [3], 48.5%; in assay [4], 84.9%.

As for `CNc1cc2c(Nc3cccc(Br)c3)ncnc2cn1`, the residual activity is 110% in assay [1], 55.2% in assay [2], 97% in assay [3] and 94.5% in assay [4].

As for `COc1cc2c(N3CCN(C(=O)Nc4ccc(OC(C)C)cc4)CC3)ncnc2cc1OCCCN1CCCCC1`, the residual activity in assay [1] was determined as 103%; in assay [2], 89.7%; in assay [3] it was 94.6%; in assay [4] it was 102%.

With `CCN(CC)C(=O)c1ccc(Nc2nc(OCC3CCCCC3)c3nc[nH]c3n2)cc1`, the residual activity came out at 97.9% in assay [1], 97.5% in assay [2], 25.9% in assay [3] and 93.1% in assay [4].
